These results are taken from ChEMBL document CHEMBL1155247, “SAR and biological evaluation of SEN12333/WAY-317538: Novel alpha 7 nicotinic acetylcholine receptor agonist” (Bioorg Med Chem, 2009).

In the assay the target is Neuronal acetylcholine receptor subunit alpha-7 (Rattus norvegicus) (UniProt Q05941). As to the kind of experiment: Selectivity for rat alpha7 nAChR over human alpha3 nAChR.

Each structure is given as a SMILES string.

Turning to `Cl.O=C(CCCCN1CCOCC1)Nc1ccc(-c2cccnc2)cc1`, the Selectivity ratio was 5.3.
